Source: article PMC4674796, “Only a minority of broad-range detoxification genes respond to a variety of phytotoxins in generalist Bemisia tabaci species” (Scientific Reports, 2015)

target: T1, BtGST2 (Bemisia tabaci, UniProt A0A9P0F9D9); assay: GSH/CDNB conjugation, absorbance at […] nm, Michaelis-Menten fit; format: biochemical; conditions: co-substrate GSH 2.75 mM, CDNB 0.06-3 mM; 0.1 M potassium phosphate pH 6.5, 25 °C
T1 construct: gene BEMITA_LOCUS12014
T1 sequence (A0A9P0F9D9 1-204): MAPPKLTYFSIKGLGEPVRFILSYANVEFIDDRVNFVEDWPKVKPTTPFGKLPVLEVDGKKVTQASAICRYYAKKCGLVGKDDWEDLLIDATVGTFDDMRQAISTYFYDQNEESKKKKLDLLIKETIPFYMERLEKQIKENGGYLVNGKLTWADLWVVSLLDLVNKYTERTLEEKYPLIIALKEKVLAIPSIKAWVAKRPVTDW

Row | Compound | Km [µM]
1 | O=[N+]([O-])c1ccc(Cl)c([N+](=O)[O-])c1 [CDNB, 1-Chloro-2,4-dinitrobenzene] | 710 ± 160

target: T1, BtGST2; assay: inhibition of CDNB/GSH conjugation, absorbance at […] nm; format: biochemical; conditions: read-out: % inhibition at 0.5 mM

Row | Compound | inhibition at 500 µM [%]
2 | O=c1c(O)c(-c2ccc(O)c(O)c2)oc2cc(O)cc(O)c12 [Quercetin hydrate] | 97.6 ± 2.43
3 | C=CCN=C=S [AITC] | 40.9 ± 5.08
4 | CN1CCC[C@H]1c1cccnc1 [Nicotine] | 6.64 ± 3.68
5 | O=c1cc(-c2ccccc2)oc2ccccc12 [Flavone, 2-phenyl chromone] | 67.3 ± 8.65
6 | OCc1c[nH]c2ccccc12 [I3C] | 20.9 ± 7.99
